Data as given in patent US7998965B2, “Glutamate aggrecanase inhibitors” (Wyeth LLC, priority 2005, dated 2011).

Key:
[1] = biological target: T1, purified recombinant human Aggrecanase-1 (rAgg1) (Homo sapiens, UniProt O75173); assay: In vitro fluorescence screen for Aggrecanase-1 inhibitors; type: biochemical; details: Table 2; read-out: Agg1 IC50
T1 sequence (O75173 213-837): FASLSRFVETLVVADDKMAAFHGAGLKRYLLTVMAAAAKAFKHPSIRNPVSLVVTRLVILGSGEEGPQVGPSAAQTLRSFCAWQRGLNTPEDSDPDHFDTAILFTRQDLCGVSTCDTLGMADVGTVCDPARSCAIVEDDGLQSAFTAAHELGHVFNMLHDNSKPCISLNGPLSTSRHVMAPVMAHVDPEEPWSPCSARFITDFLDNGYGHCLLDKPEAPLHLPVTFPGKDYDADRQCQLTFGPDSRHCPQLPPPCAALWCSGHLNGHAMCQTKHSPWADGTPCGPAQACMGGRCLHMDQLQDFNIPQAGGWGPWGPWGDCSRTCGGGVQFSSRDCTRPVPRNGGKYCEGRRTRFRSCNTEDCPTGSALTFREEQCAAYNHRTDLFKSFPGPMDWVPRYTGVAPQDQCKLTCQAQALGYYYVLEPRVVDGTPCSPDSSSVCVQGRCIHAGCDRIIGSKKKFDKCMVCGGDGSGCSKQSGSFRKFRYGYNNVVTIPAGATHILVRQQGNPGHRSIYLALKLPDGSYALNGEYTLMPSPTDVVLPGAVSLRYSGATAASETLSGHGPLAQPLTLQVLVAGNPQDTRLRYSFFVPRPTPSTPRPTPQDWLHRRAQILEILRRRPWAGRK

[2] = biological target: T2, purified recombinant human Aggrecanase-2 (Ag2t-Phe628-Strep) (Homo sapiens, UniProt Q9UNA0); assay: In vitro fluorescence screen for Aggrecanase-2 inhibitors; type: biochemical; details: Table 2; read-out: Agg 2 IC50
T2 construct: the form used is denoted as Ag2t-Phe628-Strep (MW=41,737)
T2 sequence (Q9UNA0 262-628): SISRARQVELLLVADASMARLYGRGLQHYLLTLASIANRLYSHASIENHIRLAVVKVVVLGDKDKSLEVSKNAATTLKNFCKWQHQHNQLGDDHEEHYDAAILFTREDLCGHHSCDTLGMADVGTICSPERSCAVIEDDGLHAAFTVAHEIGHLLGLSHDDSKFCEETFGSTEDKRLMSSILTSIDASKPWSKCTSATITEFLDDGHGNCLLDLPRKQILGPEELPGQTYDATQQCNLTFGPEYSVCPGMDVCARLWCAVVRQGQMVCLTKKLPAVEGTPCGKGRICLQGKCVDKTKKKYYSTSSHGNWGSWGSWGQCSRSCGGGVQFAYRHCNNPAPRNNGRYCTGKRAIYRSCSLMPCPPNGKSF

SMILES | IC50 [1] [nM] | IC50 [2] [nM]
COc1ccc(-c2ccc(C(=O)N[C@@H](CCC(=O)O)C(=O)NCc3cc(OC)c(OC)c(OC)c3)cc2)c(OC)c1 [Example 17G, N^2-[(2′,4′-dimethoxybiphenyl-4-yl)carbonyl]-N-(3,4,5-trimethoxybenzyl)-L-α-glutamine] | 1600 | 3000 to 8000
Cc1ccc(-c2ccc(C(=O)N[C@@H](CCC(=O)O)C(=O)NC(C)(C)Cc3ccc(F)cc3)cc2)cc1F [Example 17GG, N^2-[(3′-fluoro-4′-methylbiphenyl-4-yl)carbonyl]-N-[2-(4-fluorophenyl)-1,1-dimethylethyl]-L-α-glutamine] | 34 | 113
COc1cc(CNC(=O)[C@H](CCC(=O)O)NC(=O)c2ccc(-c3cc(OC)c(OC)c(OC)c3)cc2)cc(OC)c1OC [Example 17H, N-(3,4,5-trimethoxybenzyl)-N^2-[(3′,4′,5′-trimethoxybiphenyl-4-yl)carbonyl]-L-α-glutamine] | 1000 | ~22000
CC(C)Cc1ccc(-c2ccc(C(=O)N[C@@H](CCC(=O)O)C(=O)NC(C)(C)Cc3ccc(F)cc3)cc2)cc1 [Example 17HH, N-[2-(4-fluorophenyl)-1,1-dimethylethyl]-N^2-[(4′-isobutylbiphenyl-4-yl)carbonyl]-L-α-glutamine] | 2200 | 6320
COc1cc(CNC(=O)[C@H](CCC(=O)O)NC(=O)c2ccc(-c3ccc(-c4ccccc4)cc3)cc2)cc(OC)c1OC [Example 17II, N^2-(1,1′:4′,1″-terphenyl-4-ylcarbonyl)-N-(3,4,5-trimethoxybenzyl)-L-α-glutamine] | 1000 to 3000 | ~10000
COc1ccc(-c2ccc(C(=O)N[C@@H](CCC(=O)O)C(=O)NC(C)(C)Cc3ccccc3)cc2)cc1OC [Example 17J, N^2-[(3′,4′-dimethoxybiphenyl-4-yl)carbonyl]-N-(1,1-dimethyl-2-phenylethyl)-L-α-glutamine] | ~5600 | ~30000
O=C(O)CC[C@H](NC(=O)c1ccc(-c2cccc(CO)c2)cc1)C(=O)NCc1ccccc1 [Example 17JJ, N-benzyl-N^2-{[3′-(hydroxymethyl)biphenyl-4-yl]carbonyl}-L-α-glutamine] | 2400 | 19500
CCOc1ccccc1-c1ccc(C(=O)N[C@@H](CCC(=O)O)C(=O)NC(C)(C)Cc2ccccc2)cc1 [Example 17K, N-(1,1-dimethyl-2-phenylethyl)-N^2-[(2′-ethoxybiphenyl-4-yl)carbonyl]-L-α-glutamine] | 1200 | ~3700
COc1cc(CNC(=O)[C@H](CCC(=O)O)NC(=O)c2ccc(-c3c(C)cc(C)cc3C)cc2)cc(OC)c1OC [Example 17KK, N-(3,4,5-trimethoxybenzyl)-N^2-[(2′,4′,6′-trimethylbiphenyl-4-yl)carbonyl]-L-α-glutamine] | > 25000 | > 67000
Cc1ccc(-c2ccc(C(=O)N[C@@H](CCC(=O)O)C(=O)NC(C)(C)Cc3ccccc3)cc2)cc1F [Example 17L, N-(1,1-dimethyl-2-phenylethyl)-N^2-[(3′-fluoro-4′-methylbiphenyl-4-yl)carbonyl]-L-α-glutamine] | 133 | 226
CC(C)(Cc1ccccc1)NC(=O)[C@H](CCC(=O)O)NC(=O)c1ccc(-c2ccc(O)cc2)cc1 [Example 17LL, N-(1,1-dimethyl-2-phenylethyl)-N^2-[(4′-hydroxybiphenyl-4-yl)carbonyl]-L-α-glutamine] | 87 | 1190
COc1ccc(-c2ccc(C(=O)NC(CCC(=O)O)C(=O)NCc3cc(OC)c(OC)c(OC)c3)cc2)cc1C (stereo not drawn) [Example 17M, 4-[(4′-Methoxy-3′-methyl-biphenyl-4-carbonyl)-amino]-4-(3,4,5-trimethoxy-benzylcarbamoyl)-butyric acid] | ~310 | > 11000
CCOc1cccc(-c2ccc(C(=O)N[C@@H](CCC(=O)O)C(=O)NC(C)(C)Cc3ccccc3)cc2)c1 [Example 17MM, N-(1,1-dimethyl-2-phenylethyl)-N^2-[(3′-ethoxybiphenyl-4-yl)carbonyl]-L-α-glutamine] | 46 | 2710
Cc1cccc(CNC(=O)[C@H](CCC(=O)O)NC(=O)c2ccc(-c3ccc4c(c3)OCO4)cc2)c1 [Example 17NN, N^2-[4-(1,3-benzodioxol-5-yl)benzoyl]-N-(3-methylbenzyl)-L-α-glutamine] | 200 | 729
O=C(O)CC[C@H](NC(=O)c1ccc(-c2ccc(O)cc2)cc1)C(=O)NCC12CC3CC(CC(C3)C1)C2 [Example 17O, N-(1-adamantylmethyl)-N^2-[(4′-hydroxybiphenyl-4-yl)carbonyl]-L-α-glutamine] | 8500 | ~22000
CC(C)(Cc1ccc(F)cc1)NC(=O)[C@H](CCC(=O)O)NC(=O)c1ccc(-c2ccc(O)cc2)cc1 [Example 17OO, N-[2-(4-fluorophenyl)-1,1-dimethylethyl]-N^2-[(4′-hydroxybiphenyl-4-yl)carbonyl]-L-α-glutamine] | < 30 | 1680
CC(C)(Cc1ccccc1)NC(=O)[C@H](CCC(=O)O)NC(=O)c1ccc(-c2ccc3c(c2)OCO3)cc1 [Example 17P, N^2-[4-(1,3-benzodioxol-5-yl)benzoyl]-N-(1,1-dimethyl-2-phenylethyl)-L-α-glutamine] | 126 | 58
COc1ccc(-c2ccc(C(=O)N[C@@H](CCC(=O)O)C(=O)NC(C)(C)Cc3ccccc3)cc2)c(OC)c1 [Example 17Q, N^2-[(2′,4′-dimethoxybiphenyl-4-yl)carbonyl]-N-(1,1-dimethyl-2-phenylethyl)-L-α-glutamine] | ~13000 | > 30000
O=C(O)CC[C@H](NC(=O)c1ccc(C#CC2CCC(O)CC2)cc1)C(=O)NCc1ccccc1 (stereo partly drawn) [Example 17QQ, N-benzyl-N^2-{4-[(4-hydroxycyclohexyl)ethynyl]benzoyl}-L-α-glutamine] | > 25000 | ~22000
COc1cc(CNC(=O)[C@H](CCC(=O)O)NC(=O)c2ccc(-c3cccc(O)c3)cc2)cc(OC)c1OC [Example 17RR, N^2-[(3′-hydroxybiphenyl-4-yl)carbonyl]-N-(3,4,5-trimethoxybenzyl)-L-α-glutamine] | < 30 | 26
CCC(C)c1ccc(-c2ccc(C(=O)N[C@@H](CCC(=O)O)C(=O)NC(C)(C)Cc3ccccc3)cc2)cc1 (stereo partly drawn) [Example 17S, N^2-[(4′-sec-butylbiphenyl-4-yl)carbonyl]-N-(1,1-dimethyl-2-phenylethyl)-L-α-glutamine] | 4600 | 10100
CC(C)(Cc1ccccc1)NC(=O)[C@H](CCC(=O)O)NC(=O)c1ccc(-c2ccc(CO)cc2)cc1 [Example 17SS, N-(1,1-dimethyl-2-phenylethyl)-N^2-{[4′-(hydroxymethyl)biphenyl-4-yl]carbonyl}-L-α-glutamine] | 450 | 3960
CC(C)c1ccc(-c2ccc(C(=O)N[C@@H](CCC(=O)O)C(=O)NC(C)(C)Cc3ccccc3)cc2)cc1 [Example 17T, N-(1,1-dimethyl-2-phenylethyl)-N^2-[(4′-isopropylbiphenyl-4-yl)carbonyl]-L-α-glutamine] | 3200 | 7200
Cc1ccc(-c2ccc(C(=O)N[C@@H](CCC(=O)O)C(=O)NC(C)(C)Cc3ccccc3)cc2)cc1 [Example 17TT, N-(1,1-dimethyl-2-phenylethyl)-N^2-[(4′-methylbiphenyl-4-yl)carbonyl]-L-α-glutamine] | 120 | 173
CC(C)(Cc1ccccc1)NC(=O)[C@H](CCC(=O)O)NC(=O)c1ccc(-c2ccc(-c3ccccc3)cc2)cc1 [Example 17U, N-(1,1-dimethyl-2-phenylethyl)-N^2-(1,1′:4′,1″-terphenyl-4-ylcarbonyl)-L-α-glutamine] | 1800 | ~6700
CC(C)(Cc1ccc(F)cc1)NC(=O)[C@H](CCC(=O)O)NC(=O)c1ccc(-c2cccc(O)c2)cc1 [Example 17UU, N-[2-(4-fluorophenyl)-1,1-dimethylethyl]-N^2-[(3′-hydroxybiphenyl-4-yl)carbonyl]-L-α-glutamine] | < 30 | 39
COc1cc(CNC(=O)[C@H](CCC(=O)O)NC(=O)c2ccc(-c3ccc(O)cc3)cc2)cc(OC)c1OC [Example 17V, N^2-[(4′-hydroxybiphenyl-4-yl)carbonyl]-N-(3,4,5-trimethoxybenzyl)-L-α-glutamine] | 90 | 1800
